Measurements: US20230212170A1, “INHIBITORS OF KRAS G12C PROTEIN AND USES THEREOF” (SHANGHAI ANTENGENE CORPORATION LIMITED, priority 2020, published 2023)
Like-named read-outs stand apart in the source and are kept apart here.

Experiments:
MIA PaCa-2 = assay: Tumor cell anti-proliferation assay (CTG assay), MIA PaCa-2; assay type: cell-based; conditions: read-out: IC50 MIA PaCa-2
Protocol: (§1) Assay 3: Tumor Cell Anti-Proliferation Assay (CTG Assay)
(§2) Tested tumor cell lines (MIA PaCa-2, NCI-H358, and A549) were seeded to the 96-well plate for overnight, then cells were treated with the test compound at 9 serially diluted concentrations in triplicate. After 3-days incubation with the test compound, the CTG assay was performed to evaluate the IC50. The 3 cell lines were tested in the same manner. Cisplatin were used as the positive control.
(§3) Day −1: Cell Plating for Cell Lines
(§4) 1. Adjust the cell concentration to the appropriated number with the medium, and for each well of a 96-well plate, add 90 μl cell suspensions (Cell concentration will be adjusted according to the data base or density optimization assay). 2. Incubate the plates for overnight in humidified incubator at […] with 5% CO2.
(§5) Day 0: T0 Plate Reading and Compound Treatment
(§6) 3. Add 10 μL culture medium to each well of plate A for T0 reading.
(§7) 4. Equilibrate the plate and its content at RT for approximately 30 min.
(§8) 5. Add 50 μL CellTiter-Glo® Reagent to each well for T0 reading.
(§9) 6. Mix contents for 2 minutes on an orbital shaker to facilitate cell lysis.
(§10) 7. Allow the plate to incubate at room temperature for 10 minutes to stabilize the luminescent signal. Note: Uneven luminescent signal within standard plates can be caused by temperature gradients, uneven seeding of cells or edge effects in multiwall plates.
(§11) 8. Place a black BackSeal sticker to the bottom of each plate.
(§12) 9. Record luminescence using an Envision Multi Label Reader.
(§13) 10. Dilute the test compound and the positive control (Cisplatin). Add 10 μL of 10× test compound working solutions into the corresponding wells. Incubate the test plates in the humidified incubator at 37° C. with 5% Co2.
(§14) Day 3: Plate Reading for 3-Day Assay
(§15) 11. Monitor under the microscope to make sure that the cells in control wells are healthy.
(§16) 12. After three days incubation, add 50 μL CellTiter-Glo® Reagent to each well.
(§17) 13. Mix contents for 2 minutes on an orbital shaker to facilitate cell lysis.
(§18) 14. Allow the plate to incubate at room temperature for 10 minutes to stabilize the luminescent signal.
(§19) 15. Note: Uneven luminescent signal within standard plates can be caused by temperature gradients, uneven seeding of cells or edge effects in multiwall plates.
(§20) 16. Place a black BackSeal sticker to the bottom of each plate.
(§21) 17. Record luminescence using an Envision Multi Label Reader.
(§22) In order to calculate IC50, a dose-response curve was fitted using nonlinear regression model with a sigmoidal dose response. The formula of the surviving rate is shown below, and the IC50 was automatically produced by GraphPad Prism 5.0.
(§23) The surviving rate […]=(LumTest compound−LumMedium control)/(LumNone treated-LumMedium control)×100%.
(§24) LumNone treated-LumMedium control is set as 100% o and LumMedium control is set as […]. T0 value will be presented as percentage of LumNone treated.

NCI-H358 = assay: Tumor cell anti-proliferation assay (CTG assay), NCI-H358; assay type: cell-based; conditions: read-out: IC50 NCI-H358
Protocol: as §1, §2, §3, §4, §5, §6, §7, §8, §9, §10, §11, §12, §13, §14, §15, §16, §17, §18, §19, §20, §21, §22, §23, §24

A549 = assay: Tumor cell anti-proliferation assay (CTG assay), A549; assay type: cell-based; conditions: A549, 3-days incubation
Protocol: as §1, §2, §3, §4, §5, §6, §7, §8, §9, §10, §11, §12, §13, §14, §15, §16, §17, §18, §19, §20, §21, §22, §23, §24

KRAS G12C [1] = target: T1, KRAS G12C (Homo sapiens, UniProt P01116, G12C); assay: KRAS G12C nucleotide exchange assay (SOS1-mediated, mant-GDP fluorescence); assay type: biochemical; set-up: KRas(1-169) G12C protein; conditions: 15 min pre-incubation
Protocol: Assay 1: KRAS G12C Nucleotide Exchange Assay
1×Loading buffer: 20 mM HEPES, pH 7.5, 50 mM NaCl, 0.5 mM MgCl2, 1 mM DTT, 5 mM EDTA
1×Equilibration buffer: 20 mM HEPES, pH 7.5, 150 mM NaCl, 1 mM MgCl2, 1 mM DTT
1×Assay buffer: 20 mM HEPES, pH 7.5, 150 mM NaCl, 1 mM MgCl2, 0.01% Tween-20, 1 mM DTT
2. Load Mant GDP to KRAS G12C:
a. A mixed solution of 100 µL mant GDP and KRAS G12C was prepared with 1×loading buffer: 60 um KRAS G12C, 600 um […], incubated at room temperature for 60 minutes, and the reaction was carried out in dark conditions.
b. Add 1 uL 1 m MgCl2 (final concentration 10 mm) to stop the reaction, mix the solution upside down in the centrifuge tube, centrifugate for 3-5 seconds, and incubate at room temperature for 30 minutes.
c. At the same time of incubation for 30 minutes, balance nap-5 column with 10 ml ix equipment buffer until no liquid drops.
d. Drop the mixed solution of 100 uL mant GDP and KRAS G12C into the center of nap-5 column. After the sample completely enters nap-5 column, add 400 µL 1× equipment buffer until no liquid drops.
e. Add 500 ul 1× equipment buffer for elution and collect eluant.
f. Determination of KRAS G12C mant GDP with Bradford protein quantitative Kit.
3. Nucleotide Exchange Experiment:
a. Transfer 50 NL DMSO/compound to 384 well plate with echo550.
b. 10 uL enzyme mix was added into 384 pore plate and incubated with DMSO/compound for 15 min.
c. Initial reaction with 10 µL Sos1/GTP mix.
d. Immediately after reaction, read ex360/em440 fluorescence value in kinetic mode with Nivo.
a. Use Graphpad software to process data and draw pictures.
b. K value is obtained in Graphpad software by fitting One phase experimental deck model.
c. Z′=1-3*(SdKmax+SdKmin)/(AveKmax−AveKmin)
d. In % is calculated by the following formula:
Inh%=(Kmax−Ksample)/(Kmax−Kmin)*100
Target sequence in this assay (P01116 1-169 isoform P01116-2 G12C): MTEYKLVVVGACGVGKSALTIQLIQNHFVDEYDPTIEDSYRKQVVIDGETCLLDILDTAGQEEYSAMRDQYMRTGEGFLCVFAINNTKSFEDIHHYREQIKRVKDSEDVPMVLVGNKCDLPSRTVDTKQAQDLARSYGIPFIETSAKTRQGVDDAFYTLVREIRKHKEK

KRAS G12C [2] = target: T1, KRAS G12C; assay: KRAS GDP FI assay; assay type: biochemical; conditions: kinetic reading Ex580/Em620 for 120 min
Excerpt: Assay 2: KRAS GDP FI Assay
1. Prepare compound dilution plate.
2. Transfer Inhibitor/DMSO to assay plate by Echo.
3. Prepare 1× assay buffer.
4. Prepare KRAS G12C mix & SOS1 mix & GTP mix & detection reagent mix.
5. Add KRAS G12C mix, SOS1 mix, GTP mix.
6. Add detection reagent mix to assay plate.
Target sequence in this assay (P01116 1-188 isoform P01116-2 G12C): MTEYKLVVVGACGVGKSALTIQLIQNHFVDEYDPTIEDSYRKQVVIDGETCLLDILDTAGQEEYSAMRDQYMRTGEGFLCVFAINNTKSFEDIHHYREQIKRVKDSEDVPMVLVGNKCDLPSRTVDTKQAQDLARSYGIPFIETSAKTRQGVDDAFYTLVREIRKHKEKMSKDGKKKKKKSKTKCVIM

[3] = MIA PaCa-2, 3-days incubation, CTG
[4] = NCI-H358, 3-days incubation, CTG
[5] = Homo sapiens, MIA PaCa-2, 72 h, MIA PaCa-2, 3-days incubation, CTG
[6] = Homo sapiens, NCI-H358, 72 h, NCI-H358, 3-days incubation, CTG

| Structure (SMILES) | IC50 (MIA PaCa-2; [5]) [µM] | IC50 (NCI-H358; [6]) [µM] | IC50 (A549; Homo sapiens, 72 h) [µM] | IC50 (KRAS G12C [1]) [µM] | further results |
| --- | --- | --- | --- | --- | --- |
| C=CC(=O)N1C[C@H](C)N(c2nc(OC[C@@H]3CCCN3C)nc3c(=O)n(-c4cc(OC)cc5ccccc45)c(C(F)(F)F)nc23)[C@@H](C)C1 (single isomer, unassigned) [Example 35-b] | – | – | – | – | IC50 (MIA PaCa-2; [3]): 0.916 µM; IC50 (NCI-H358; [4]): 0.206 µM; IC50 (A549): > 10 µM |
| N.N.[Cl][Pt][Cl] [Cisplatin, reference compound] | – | – | – | – | IC50 (MIA PaCa-2; [3]): 14.3 µM; IC50 (NCI-H358; [4]): 25 µM; IC50 (A549): 31.1 µM |
| Cc1nc2c(N3CCN[C@@H](CC#N)C3)nc(OC[C@@H]3CCCN3C)nc2c(=O)n1-c1cccc2ccccc12 [Compound 2, 2-((S)-4-(6-methyl-2-(((S)-1-methylpyrrolidin-2-yl)methoxy)-7-(naphthalen-1-yl)-8-oxo-7,8-dihydropyrimido[5,4-d]pyrimidin-4-yl)piperazin-2-yl)acetonitrile] | 0.642 | 1.34 | > 5 | 0.69 | – |
| C=CC(=O)N1C[C@H](C)N(c2nc(OC[C@@H]3CCCN3C)nc3c(=O)n(-c4cn(C)c5ccccc45)c(C(F)(F)F)nc23)[C@@H](C)C1 [Example 43] | – | – | – | – | IC50 (MIA PaCa-2; Homo sapiens, MIA PaCa-2, 72 h): 0.766 µM; IC50 (NCI-H358; Homo sapiens, NCI-H358, 72 h): 0.257 µM |

Continued, in another order:

| IC50 (MIA PaCa-2; [5]) [µM] | IC50 (NCI-H358; [6]) [µM] | IC50 (A549; Homo sapiens, 72 h) [µM] | IC50 (KRAS G12C [1]) [µM] | Structure (SMILES) | further results |
| --- | --- | --- | --- | --- | --- |
| 0.504 | 0.476 | > 5 | 0.56 | C=CC(=O)N1CCN(c2nc(OC[C@@H]3CCCN3C)nc3c(=O)n(-c4cccc5cccc(Cl)c45)c(C)nc23)C[C@@H]1CC#N [Compound 4, 2-((S)-1-acryloyl-4-(7-(8-chloronaphthalen-1-yl)-6-methyl-2-(((S)-1-methylpyrrolidin-2-yl)methoxy)-8-oxo-7,8-dihydropyrimido[5,4-d]pyrimidin-4-yl)piperazin-2-yl)acetonitrile] | – |
| > 5 | > 5 | > 5 | 0.37 | C=CC(=O)N1CCN(c2nc(OC[C@@H]3CCCN3C)nc3c(=O)n(-c4cccc5cccc(Cl)c45)c(=O)[nH]c23)C[C@@H]1CC#N [Compound 19, 2-((S)-1-acryloyl-4-(7-(8-chloronaphthalen-1-yl)-2-(((S)-1-methylpyrrolidin-2-yl)methoxy)-6,8-dioxo-5,6,7,8-tetrahydropyrimido[5,4-d]pyrimidin-4-yl)piperazin-2-yl)acetonitrile] | – |
| 0.124 | – | > 10 | 0.446 | C=CC(=O)N1CCN(c2nc(OC[C@@H]3CCCN3C)nc3c(=O)n(-c4cccc5cccc(Cl)c45)c(C(F)(F)F)nc23)C[C@@H]1CC#N [Example 31, 2-((S)-1-acryloyl-4-(7-(8-chloronaphthalen-1-yl)-2-(((S)-1-methylpyrrolidin-2-yl)methoxy)-8-oxo-6-(trifluoromethyl)-7,8-dihydropyrimido[5,4-d]pyrimidin-4-yl)piperazin-2-yl)acetonitrile] | IC50 (KRAS G12C [2]): 0.116 µM |
